These are literature values, as cited in patent publication US20080004223A1, “DERMATOLOGICAL USES OF THE TRIPEPTIDE MELANOCYTE STIMULATING INHIBITORY FACTOR (MIF)” (priority 2006, published 2008).

Where two headings read alike, the source gives them in different places. Residues, ends and D or L forms follow the SMILES beside them. No end group written: not given here.

For data set [1] the following is noted: rats; Petersson et al. 2004.
For data set [2] the following is noted: mice, modified Dopa test; U.S. Pat. No. 3,708,593.
For data set [3] the following is noted: U.S. Pat. No. 4,278,595.
The conditions of data set [4]: water wheel test; Kastin et al. 1984.
For data set [5] the following is noted: rats; Pahdy et al. 2005.
The conditions of data set [6]: rats; Petersson et al. 2001.
The conditions of data set [7]: rats; Hayashi et al. 1983, 1984.
For data set [8] the following is noted: rats; Kastin et al. 1985.

Turning to `CC(C)C[C@H](NC(=O)[C@@H]1CCCN1)C(=O)NCC(N)=O` [MIF, prolyl-leucyl-glycinamide] (H-Pro-Leu-Gly-NH2), the oxytocin levels result in data set [1] is “decreases oxytocin levels”. Besides, the antidepressant activity result in data set [2] was “exhibits antidepressant activity”; in data set [4] it was “active as antidepressants”. The “metabolism subsequent to administration” value in data set [3] was “rapidly metabolized”.
Consider `CC[C@H](C)[C@@H]1NC(=O)[C@H](Cc2ccc(O)cc2)NC(=O)[C@@H](N)CSSC[C@@H](C(=O)N2CCC[C@H]2C(=O)N[C@@H](CC(C)C)C(=O)NCC(N)=O)NC(=O)[C@H](CC(N)=O)NC(=O)[C@H](CCC(N)=O)NC1=O` [oxytocin], for which, in data set [5], the latex-induced inflammatory hyperalgesia entry is on record as “inhibit Calotropis procera latex-induced inflammatory hyperalgesia”. The carrageenan induced inflammation result in data set [6] was “decreases carrageenan induced inflammation”.
For the compound “Tyr-Pro-Leu-Gly-NH2 (YPLG-NH2) [Tyr-MIF-1, brain derived peptide]”, in data set [7], the “effect on passive avoidance” value is on record as “shown to affect passive avoidance”. Further, the antidepressant activity entry in data set [4] was “active as antidepressants”. Besides, the “inhibition of the analgesic effect of morphine” value in data set [8] is reported as “active in inhibiting the analgesic effect of morphine”.
